≈ marks a conversion by molar mass, not a printed value. Like-named read-outs stand apart in the source and are kept apart here.
What was measured:
[1] = Maximum solubility of ITZA and azole analogues in solvents (HPLC); type: physicochemical; settings: for solubility thermodynamic at 1 h: within 1 hour at RT, read-out: Maximum equilibrium solubility
Method: ITZA and its analogues were dissolved in various solvents incubated at 37° C. for 30 minutes, cooled down to room temperature, centrifuged at 14,000 rpm for 1 min. The supernatant was analyzed using HPLC to determine the maximum solubility of ITZA and its azole analogues.
In a first step the maximum ITZA solubility in various single solvents was determined. To this end, ITZA and its analogs were dissolved in various solvents, incubated at 37° C. for 30 minutes, cooled down to room temperature, centrifuged at 14,000 rpm for 1 min. The supernatant was analyzed using HPLC to determine the maximum solubility of the respective agent.
The solubility of ITZA was determined in several individual vehicles. Briefly, a known amount of ITZA drug, formulated as a powder (Sigma Inc., St Louis, Mo.), was equilibrated in the respective solvent at RT over 1-4 hours. An aliquot was removed, filtered, and prepared for HPLC to determine maximum solubility at room temperature. Based on the ITZA solubility in each vehicle, different solvents were mixed according to the cosolvency principle in an attempt to arrive at an enhanced stable solubility. […] The stock formulation was then diluted with a final diluent, i.e. NS or D5W or DlOW, to yield a stable use-formulation. The desired range of the final use-formulation was between 1 and 5 mg/mL, as it would result in a final volume that could be safely and conveniently infused intravascularly.
An excess of ITZA as a powder was added to a multitude of chemical solvents (Table 1) at RT. Each mixture was intermittently vortexed, placed in a dark environment and checked visually for up to 4 hours for evidence of solubilization. Following centrifugation to remove solid particles, small samples were withdrawn after consecutive time intervals and the ITZA concentration was determined by HPLC as described.

[2] = system: Zygomycete (Clinical Lab isolate, MDACC); test: Extended mold testing, MIC (CLSI M38A); type: cell-based; settings: H3 final use-formulation, range 75 μg/mL to 0.07 μg/mL, 48 hr, read-out: MIC
Text: To further determine the antifungal activity of the compounds in the new formulation systems we investigated the efficacy of the various agents against additional strains of mucor and Aspergillus (9/-16-9/20/2010) (The Rhizomucor was a clinical isolate from a patient isolate) and the Aspergillus fumigatus (ATCC strain 90906) used was a repeat from the previously described experiment. Again, the susceptibility tests were set-up using the standardized test method (CLSI M38A). The used drugs were provided in the described H3 final use-formulation that has been previously described. All drugs were diluted in RPMI-Mops medium (YeastOne, Sensititer Lot 151416SA, expiration date January 2011).
As before two different molds were tested with a standard read out at 48 hr: • Drug dilution range 75 μg/mL to 0.07 μg/mL. • Aspergillus fumigatus (ATCC strain 90906) Zygomycete (Clinical Lab isolate, MDACC)

Which results are given for `CCC(C)n1ncn(-c2ccc(N3CCN(c4ccc(OCC5COC(Cn6cncn6)(c6ccc(Cl)cc6Cl)O5)cc4)CC3)cc2)c1=O` (stereo not shown) [ITZA, itraconazole]?
solubility ([1]; 2M citric acid, aqueous buffer, thermodynamic from solid, in 2M citric acid, read-out: Maximum solubility): 3220 µg/mL (≈ 4.56 mM); solubility ([1]; 6N HCl, aqueous buffer, thermodynamic from solid, in 6N HCl, read-out: Maximum solubility): 7410 µg/mL (≈ 10.5 mM); solubility ([1]; 25% acetic acid, aqueous with cosolvent or surfactant or cyclodextrin, thermodynamic from solid, in 25% Acetic acid, read-out: Maximum solubility): 300 µg/mL (≈ 0.425 mM); solubility ([1]; 50% acetic acid, aqueous with cosolvent or surfactant or cyclodextrin, thermodynamic from solid, in 50% Acetic acid, read-out: Maximum solubility): 12900 µg/mL (≈ 18.3 mM); solubility ([1]; Intralipid, oil or lipid, thermodynamic from solid, in Intralipid, read-out: Maximum solubility): 150 µg/mL (≈ 0.213 mM); solubility ([1]; PEG 200, organic solvent or mixture, thermodynamic from solid, in PEG 200, read-out: Maximum solubility): 1450 µg/mL (≈ 2.05 mM); solubility ([1]; PEG 300, organic solvent or mixture, thermodynamic from solid, in PEG 300, read-out: Maximum solubility): 1810 µg/mL (≈ 2.57 mM); solubility ([1]; PEG 400, organic solvent or mixture, thermodynamic from solid, in PEG 400, read-out: Maximum solubility): 2510 µg/mL (≈ 3.56 mM); solubility ([1]; acetic acid, organic solvent or mixture, thermodynamic from solid, in Acetic acid, read-out: Maximum solubility): 144000 µg/mL (≈ 205 mM); solubility ([1]; benzyl alcohol, organic solvent or mixture, thermodynamic from solid, in Benzyl alcohol, read-out: Maximum solubility): > 128000 µg/mL; Solubility (in words) ([1]; diluted acetic acid, H2O, Normal saline, 5% Dextrose, Polyoxyethylated castor oil, Propylene glycol, 2 M citric acid, Ethanol, HCl, PEG400, Intralipid): insignificant solubility; solubility ([1]; ethanol, organic solvent or mixture, thermodynamic from solid, in Ethanol, read-out: Maximum solubility): 410 µg/mL (≈ 0.581 mM); Maximum solubility ([1]; in 10% Acetic acid): 860 µg/mL; Maximum solubility ([1]; in Polyoxyethylated castor oil): 890 µg/mL; solubility ([1]; normal saline, saline or isotonic, thermodynamic from solid, in Normal saline, read-out: Maximum solubility): 480 µg/mL (≈ 0.68 mM); solubility ([1]; organic solvent or mixture, thermodynamic from solid, benzyl alcohol containing solvent H3, room temp, read-out: Maximum solubility): ~31400 µg/mL (≈ 44.5 mM); solubility thermodynamic at 1 h ([1]; organic solvent or mixture, thermodynamic from solid, Benzyl alcohol): > 100000 µg/mL; solubility thermodynamic at 1 h ([1]; organic solvent or mixture, thermodynamic from solid, pure (glacial) acetic acid): > 100000 µg/mL; solubility ([1]; propylene glycol, organic solvent or mixture, thermodynamic from solid, in Propylene glycol, read-out: Maximum solubility): 140 µg/mL (≈ 0.198 mM); solubility ([1]; solvent B (with Tween 80), aqueous with cosolvent or surfactant or cyclodextrin, thermodynamic from solid, solvent B (with Tween 80), read-out: Maximum solubility): 29000 µg/mL (≈ 41.1 mM); solubility at 30 min ([1]; solvent H3D (no benzyl alcohol), organic solvent or mixture, thermodynamic from solid, solvent H3D (no benzyl alcohol), single determination, read-out: Azole solubility, [Drug] mg/mL): 19.1 mg/mL (≈ 27.1 mM); solubility at 30 min ([1]; solvent H3D (no benzyl alcohol), organic solvent or mixture, thermodynamic from solid, solvent H3D (no benzyl alcohol), read-out: Azole solubility, Average mg/mL): 19 mg/mL (≈ 26.9 mM); Azole solubility, [Drug] mg/mL ([1]; solvent H3D (no benzyl alcohol), single determination): 18.9 mg/mL; solubility at 30 min ([1]; solvent H3G (no benzyl alcohol), organic solvent or mixture, thermodynamic from solid, solvent H3G (no benzyl alcohol), single determination, read-out: Azole solubility, [Drug] mg/mL): 19.2 mg/mL (≈ 27.2 mM); solubility at 30 min ([1]; solvent H3G (no benzyl alcohol), organic solvent or mixture, thermodynamic from solid, solvent H3G (no benzyl alcohol), read-out: Azole solubility, Average mg/mL): 19.3 mg/mL (≈ 27.4 mM); Azole solubility, [Drug] mg/mL ([1]; solvent H3G (no benzyl alcohol), single determination): 19.4 mg/mL; solubility ([1]; solvent J1, organic solvent or mixture, thermodynamic from solid, solvent J1, read-out: Solubility): 18100 µg/mL (≈ 25.7 mM); solubility ([1]; solvent J2): 15990 µg/mL (≈ 22.7 mM); solubility ([1]; solvent J3): 10110 µg/mL (≈ 14.3 mM); solubility ([1]; solvent J4, organic solvent or mixture, thermodynamic from solid, solvent J4, read-out: Solubility): 6090 µg/mL (≈ 8.63 mM); solubility ([1]; solvent J5, organic solvent or mixture, thermodynamic from solid, solvent J5, read-out: Solubility): 3540 µg/mL (≈ 5.02 mM); solubility ([1]; solvent K, organic solvent or mixture, thermodynamic from solid, solvent K, RT, read-out: Maximum solubility): 11100 µg/mL (≈ 15.7 mM); Maximum solubility ([1]; solvent L): 5000 µg/mL; MIC [2]: 2.5 µg/mL (≈ 0.00354 mM)

Source: patent US10307418B2, “Azole pharmaceutical formulations for parenteral administration and methods for preparing and using the same as treatment of diseases sensitive to azole compounds” (Platform Brightworks Two, Ltd., priority 2010, dated 2019)
